Experimental findings from ChEMBL document CHEMBL1201862, “PubChem BioAssay data set” (2004) are described below.

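Step 1: Grow cells in 96-well plates. Step 2: Expose to compound for 48 hours at 5 concentrations. Step 3: Interpolate endpoints linearly; if unreached, use highest concentration. The concentration for 50% growth inhibition is given as GI50.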 Activity calls are given as the source filed them. Rule as the data show it: active = GI50 up to about 1.1 µM and inactive = higher. Bounds are passed on as bounds.

Holding throughout (experiment): NCI tumour cell line growth inhibition, 48 h
For test [1], the system named is U-251.
Test [2] has as its system HOP-92.
Test [3] deals with DU-145.
In test [4] the test system is NCI-H23.
Test [5] has as its system NCI-H226.
The test system of test [6] is NCI-H522.
In test [7] the test system is UACC-257.
Test [8] deals with IGROV-1.
Test [9] relates to RXF 393.
For test [10], the system named is EKVX.
The test system of test [11] is MDA-MB-435.
The test system of test [12] is HOP-62.
Test [13] has as its system HCT-15.
Test [14] deals with T47D.
For test [15], the system named is HL-60.
For test [16], the system named is KM12.
The test system of test [17] is SW-620.
For test [18], the system named is K562.
Test [19] relates to 786-0.
Test [20] has as its system BT-549.

Take `CCCN(CCC)C(=O)c1c(N2CCN(C)CC2)c2cccnc2n2c(C)cnc12`: the GI50 is > 100 µM (inactive) in test [1]; > 100 µM (inactive) in test [2]; > 100 µM (inactive) in [3]; > 100 µM (inactive) in test [4]; > 100 µM (inactive) in test [5]; 33.1 µM (inactive) in test [6]. In addition, the GI50 in test [7] was > 100 µM (inactive); in test [8] it was > 100 µM (inactive); in [9] it was 24.8 µM (inactive); in test [10] it was > 100 µM (inactive); in test [11], > 100 µM (inactive); in test [12] it was > 100 µM (inactive). In addition, the GI50 in [13] was greater than 100 µM; in [14], 14.8 µM (inactive); in test [15], > 100 µM (inactive); in [16], > 100 µM (inactive); in test [17] it was 17.5 µM (inactive); in test [18], > 100 µM (inactive). Moreover, the GI50 in test [19] is > 100 µM (inactive).
Consider `O=S(=O)([C-]([I+]c1ccccc1)S(=O)(=O)C(F)(F)C(F)(F)C(F)(F)C(F)(F)F)C(F)(F)C(F)(F)C(F)(F)C(F)(F)F`, for which the GI50 in [1] is 14.4 µM (inactive); in test [2], 8.77 µM (inactive); in test [4] it was 19.1 µM (inactive); in test [5], 3.97 µM (inactive); in [6] it was 2.49 µM (inactive); in [7], 17.6 µM (inactive). Moreover, the GI50 in test [8] is 19.1 µM (inactive); in test [10], 13.5 µM (inactive); in [20] it was 15.2 µM (inactive); in [11], 19.3 µM (inactive); in [12], 16.8 µM (inactive); in test [13], 15.2 µM. Further, the GI50 is 11.1 µM (inactive) in test [14]; 4.67 µM (inactive) in [15]; 21.5 µM (inactive) in test [16]; 5.69 µM (inactive) in [17]; 4.11 µM (inactive) in test [18]; 14.9 µM (inactive) in [19].
In the case of `O=[N+]([O-])/C(C(Cl)=C(Cl)Cl)=C(\Nc1cccc2cccnc12)SCc1ccccc1`, the GI50 in test [1] is 16.1 µM (inactive); in test [3] it was 21.5 µM (inactive); in [4], 17 µM (inactive); in test [5] it was 20.3 µM (inactive); in test [7], 21.5 µM (inactive); in test [10], 21.1 µM (inactive). Moreover, the GI50 in [20] is 16.9 µM (inactive); in test [11], 21 µM (inactive); in test [12], 15.8 µM (inactive); in test [13], 19.9 µM; in [14], 17.7 µM (inactive); in test [16] it was 17.2 µM (inactive). Also, the GI50 in test [17] was 18.4 µM (inactive); in [18], 13.4 µM (inactive); in test [19], 21.6 µM (inactive).
With `COP(=O)(OC)OCN(C)CC/C=C(\C)CC/C=C(\C)CCC=C(C)C`, the GI50 was 17.7 µM (inactive) in [1]; 17.6 µM (inactive) in [2]; 17.2 µM (inactive) in [4]; 15.4 µM (inactive) in test [5]; 13.4 µM (inactive) in test [6]; 5.02 µM (inactive) in test [7]. The GI50 in [8] was 12.5 µM (inactive); in [9], 16.9 µM (inactive); in test [10], 29.2 µM (inactive); in test [20], 16.4 µM (inactive); in test [11], 18.5 µM (inactive); in test [12], 16.1 µM (inactive). Moreover, the GI50 is 16 µM in [13]; 16.4 µM (inactive) in [14]; 15.2 µM (inactive) in [16]; 15.6 µM (inactive) in test [17]; 6.21 µM (inactive) in [18]; 15.1 µM (inactive) in test [19].
In the case of `O[C@@H]1C[C@@H]2N[C@@](O)(C[C@@H]2O)[C@H]1O`, the GI50 in test [1], in [2], in test [3], in test [4], in test [5] and in test [6] was > 100 µM (inactive) each time. Besides, the GI50 in test [7], in test [8], in [9], in test [10], in [11] and in test [12] was > 100 µM (inactive) in each case. Besides, the GI50 in [13] was greater than 100 µM; in test [14], > 100 µM (inactive); in test [15], > 100 µM (inactive); in test [16] it was > 100 µM (inactive); in [17], > 100 µM (inactive); in [18], > 100 µM (inactive). Also, in test [19], the GI50 is > 100 µM (inactive).
Regarding `CC1CC(N2CCOCC2)=Nc2ccccc2N1Cc1ccccc1` (stereo not given), the GI50 in test [1] was > 100 µM (inactive); in test [3], > 100 µM (inactive); in test [4], > 100 µM (inactive); in test [5] it was 51.2 µM (inactive); in [6], 46.5 µM (inactive); in [7] it was 38.3 µM (inactive). Moreover, the GI50 in test [8] was 25.6 µM (inactive); in test [9], 16.1 µM (inactive); in [10] it was 90.6 µM (inactive); in test [20], 66.2 µM (inactive); in [11], 56.2 µM (inactive); in test [12], 58.1 µM (inactive). The GI50 in test [13] is greater than 100 µM; in [15], 29.8 µM (inactive); in [16] it was 68.7 µM (inactive); in test [17], > 100 µM (inactive); in test [18] it was 19 µM (inactive); in test [19], > 100 µM (inactive).
Take `NC(Cc1ccccc1)P(=O)(O)O` (stereo not given): the GI50 in test [1], in test [2], in test [4], in test [5], in test [6] and in [7] was > 100 µM (inactive) each time. Also, the GI50 in [8], in test [9], in test [10], in test [20], in [11] and in test [12] was > 100 µM (inactive) throughout. Also, the GI50 was greater than 100 µM in [13]; > 100 µM (inactive) in [14]; > 100 µM (inactive) in [15]; > 100 µM (inactive) in test [16]; > 100 µM (inactive) in test [17]; > 100 µM (inactive) in test [18]. Besides, in test [19], the GI50 was > 100 µM (inactive).
Turning to `Cc1cc(Cl)ccc1OCC(=O)Oc1c(Cl)c(Cl)c(Cl)c(Cl)c1Cl`, the GI50 in test [1] is 24.4 µM (inactive); in test [2], 17.3 µM (inactive); in test [3], 22.4 µM (inactive); in test [4], 26.4 µM (inactive); in test [5] it was 20.2 µM (inactive); in [6] it was 17.9 µM (inactive). Moreover, the GI50 is 19.6 µM (inactive) in test [7]; 17.4 µM (inactive) in test [8]; 18.7 µM (inactive) in test [9]; 18.6 µM (inactive) in test [10]; 35.9 µM (inactive) in test [20]; 24.2 µM (inactive) in [11]. For the same molecule, the GI50 was 21.4 µM (inactive) in test [12]; 27 µM in test [13]; > 100 µM (inactive) in test [15]; 23.2 µM (inactive) in test [16]; 32.3 µM (inactive) in test [17]; 35.2 µM (inactive) in test [18]. For the same molecule, in test [19], the GI50 was 29.4 µM (inactive).
